Among the data in ChEMBL document CHEMBL1123411, “Ribose-modified adenosine analogues as adenosine receptor agonists” (J Med Chem, 1986) are Ki, LAD and ED20 values, retold here.

In one experiment the target is T1, Adenosine receptor A1 (Rattus norvegicus, UniProt P25099).
T1 sequence (P25099 whole entry): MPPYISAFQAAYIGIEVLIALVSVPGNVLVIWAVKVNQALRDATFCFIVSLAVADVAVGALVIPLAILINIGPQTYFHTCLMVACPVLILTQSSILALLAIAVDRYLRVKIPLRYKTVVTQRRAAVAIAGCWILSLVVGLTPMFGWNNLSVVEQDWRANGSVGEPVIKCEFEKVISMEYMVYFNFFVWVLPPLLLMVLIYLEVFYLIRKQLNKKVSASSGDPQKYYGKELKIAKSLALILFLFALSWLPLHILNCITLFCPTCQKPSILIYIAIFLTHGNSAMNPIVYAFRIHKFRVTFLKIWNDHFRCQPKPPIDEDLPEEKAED
In words: Binding affinity for adenosine A1 receptor in rat brain membranes using [3H]CHA as radioligand. It counts as cell membranes.

The species entered for experiment [1] is Mus musculus. Description: CNS activity measured using screen test failure. The format is functional.
For experiment [2], the species on record is Mus musculus. Description: Dose required to inhibit mouse locomotor activity by 60%. The format is functional.
The species entered for experiment [3] is Rattus norvegicus. In words: Cardiovascular activity (as 20% decrease in blood pressure). It counts as functional.
The species named for experiment [4] is Rattus norvegicus. Description: Cardiovascular activity (as 20% decrease in rate). It counts as functional.
The target of the next experiment is Adenosine A2 receptor (Rattus norvegicus, UniProt P29276+P30543).
Experiment [5] is filed under the species Rattus norvegicus. In words: Compound was evaluated for Cardiovascular activity (as 20% decrease in rate) in rats. The format is functional. Conditions: Heart.

Description for Adenosine A2 receptor: Binding affinity for adenosine A2 receptor in rat striatal membranes using [3H]NECA as radioligand

Usually Ki stands for a measure of affinity in units of concentration, obtained from inhibition or displacement. A low value points to tighter binding. For `C[C@H](Cc1ccccc1)Nc1ncnc2c1ncn2COCCO`, affinity on Adenosine receptor A1 was put at a Ki of 68 µM. The LAD in the experiment listed under Mus musculus [1] and in the experiment listed under Mus musculus [2] was above 30 mg/kg throughout.
As to `C[C@H](Cc1ccccc1)Nc1ncnc2c1ncn2C(CO)OC(O)CO` (stereo not given in full), the Ki at Adenosine receptor A1 and on Adenosine A2 receptor was above 10 µM in each case. The LAD in the experiment listed under Mus musculus [1] and in the experiment filed under Mus musculus [2] was above 100 mg/kg in each case. Besides, the ED20 in the experiment listed under Rattus norvegicus [3] was 0.9 mg/kg; in the experiment filed under Rattus norvegicus [4], above 10 mg/kg.
Consider `C[C@H](Cc1ccccc1)Nc1[nH]cnc2ncnc1-2`, for which the inhibitory constant (Ki) on Adenosine receptor A1 came to 9.6 µM; at Adenosine A2 receptor, 39 µM. Besides, the LAD in the experiment filed under Mus musculus [1] and in the experiment filed under Mus musculus [2] was 100 mg/kg in each case. Besides, the ED20 in the experiment listed under Rattus norvegicus [3] is 8 mg/kg; in the experiment filed under Rattus norvegicus [4] it was above 10 mg/kg.
For `C[C@H](Cc1ccccc1)Nc1ncnc2c1ncn2C1CCCO1` (stereo not given in full), the results for the inhibition constant Ki at Adenosine receptor A1 and on Adenosine A2 receptor were 1.5 µM and 8.2 µM, respectively. For the same compound, the LAD in the experiment listed under Mus musculus [1] and in the experiment listed under Mus musculus [2] was above 100 mg/kg throughout. The ED20 in the experiment filed under Rattus norvegicus [3] and in the experiment filed under Rattus norvegicus [4] was above 3 mg/kg throughout.
In the case of `C[C@H](Cc1ccccc1)Nc1ncnc2c1ncn2C[C@H](O)CO`, the inhibition constant (Ki) on Adenosine receptor A1 and on Adenosine A2 receptor was above 10 µM in each case. The LAD in the experiment filed under Mus musculus [1] and in the experiment filed under Mus musculus [2] was above 100 mg/kg each time.
For the compound `C[C@H](Cc1ccccc1)Nc1ncnc2c1ncn2[C@@H]1O[C@@H](CO)[C@@H](O)[C@H]1O`, the LAD in the experiment listed under Mus musculus [1] and in the experiment filed under Mus musculus [2] was above 100 mg/kg throughout. Further, the ED20 in the experiment listed under Rattus norvegicus [3] and in the experiment listed under Rattus norvegicus [4] was above 10 mg/kg throughout.
As to `C[C@H](Cc1ccccc1)Nc1ncnc2c1ncn2[C@H]1C[C@H](O)[C@@H](CO)O1`, the affinity on Adenosine receptor A1, expressed as Ki, was 1.9 µM. The LAD in the experiment filed under Mus musculus [1] and in the experiment filed under Mus musculus [2] was above 30 mg/kg each time.
Turning to `C[C@H](Cc1ccccc1)Nc1ncnc2c1ncn2[C@@H]1O[C@H](CO)C[C@H]1O`, the Ki on Adenosine receptor A1 came out at 0.029 µM; on Adenosine A2 receptor, 6.9 µM. For the same compound, the LAD in the experiment listed under Mus musculus [1] and in the experiment filed under Mus musculus [2] was 100 mg/kg each time. The ED20 in the experiment filed under Rattus norvegicus [3] came out at 0.8 mg/kg; in the experiment filed under Rattus norvegicus [4] it was 0.4 mg/kg.
`C[C@H](Cc1ccccc1)Nc1ncnc2c1ncn2C[C@@H](O)CO`: the inhibitory constant (Ki) at Adenosine receptor A1 and on Adenosine A2 receptor was above 10 µM throughout. Also, the LAD in the experiment listed under Mus musculus [1] and in the experiment listed under Mus musculus [2] was above 100 mg/kg throughout. In addition, the ED20 in the experiment filed under Rattus norvegicus [3] and in the experiment listed under Rattus norvegicus [4] was above 10 mg/kg each time.
Turning to `C[C@H](Cc1ccccc1)Nc1ncnc2c1ncn2C1CCCCO1` (stereo not given in full), the Ki on Adenosine receptor A1 was determined as 1.2 µM; on Adenosine A2 receptor, 38 µM. For the same compound, the LAD in the experiment listed under Mus musculus [1] is above 100 mg/kg; in the experiment filed under Mus musculus [2], 100 mg/kg.
`C[C@H](Cc1ccccc1)Nc1ncnc2c1ncn2C1CCCC(O)C1O` (stereo not given in full): the inhibition constant Ki is 15 µM at Adenosine receptor A1 and above 10 µM at Adenosine A2 receptor. The LAD in the experiment filed under Mus musculus [1] and in the experiment filed under Mus musculus [2] was above 100 mg/kg each time. Also, the ED20 in the experiment listed under Rattus norvegicus [3] and in the experiment filed under Rattus norvegicus [4] was above 3 mg/kg in each case.
In the case of `C[C@H](Cc1ccccc1)Nc1ncnc2c1ncn2C1OCC(O)C(O)C1O` (stereo not given in full), the Ki at Adenosine receptor A1 was 5.7 µM; at Adenosine A2 receptor, above 100 µM.
As to `C[C@H](Cc1ccccc1)Nc1ncnc2c1ncn2CC(O)C(O)C(O)CO` (stereo not given in full), the Ki on Adenosine receptor A1 was above 2.2 µM; on Adenosine A2 receptor it was above 100 µM. For the same compound, the LAD in the experiment listed under Mus musculus [1] and in the experiment filed under Mus musculus [2] was above 100 mg/kg throughout. In addition, the ED20 in the experiment filed under Rattus norvegicus [3] was 10 mg/kg; in the experiment listed under Rattus norvegicus [4], above 10 mg/kg.
For `C[C@H](Cc1ccccc1)Nc1ncnc2c1ncn2C1O[C@H](C)[C@@H](O)[C@H]1O` (stereo not given in full), the figures for the Ki on Adenosine receptor A1 and on Adenosine A2 receptor were 0.025 µM and 3.3 µM, respectively. The results for the LAD in the experiment filed under Mus musculus [1] and in the experiment filed under Mus musculus [2] were 100 mg/kg and 30 mg/kg, respectively. For the same compound, the values for the ED20 in the experiment filed under Rattus norvegicus [3] and in the experiment listed under Rattus norvegicus [4] were 0.05 mg/kg and above 0.3 mg/kg, respectively.
As to `C[C@H](Cc1ccccc1)Nc1ncnc2c1ncn2C1OC[C@](O)(CO)[C@H]1O` (stereo not given in full), the Ki was above 10 µM at Adenosine receptor A1 and above 50 µM on Adenosine A2 receptor.
`CSC[C@H]1OC(n2cnc3c(N[C@H](C)Cc4ccccc4)ncnc32)[C@H](O)[C@@H]1O` (stereo not given in full): the figures for the inhibition constant (Ki) on Adenosine receptor A1 and on Adenosine A2 receptor were 0.029 µM and 56 µM, respectively. Moreover, the LAD in the experiment listed under Mus musculus [1] and in the experiment filed under Mus musculus [2] was above 100 mg/kg each time. Moreover, the ED20 came out at 0.023 mg/kg in the experiment listed under Rattus norvegicus [3] and 3 mg/kg in the experiment filed under Rattus norvegicus [4].
Turning to `C[C@H](Cc1ccccc1)Nc1ncnc2c1ncn2C1O[C@H](CCl)[C@@H](O)[C@H]1O` (stereo not given in full), the values for the inhibition constant (Ki) on Adenosine receptor A1 and on Adenosine A2 receptor were 0.0016 µM and 1.9 µM, respectively. Also, the LAD in the experiment filed under Mus musculus [1] is 100 mg/kg; in the experiment listed under Mus musculus [2] it was 10 mg/kg. The ED20 in the experiment listed under Rattus norvegicus [3] was determined as 0.1 mg/kg; in the experiment listed under Rattus norvegicus [4], 0.08 mg/kg.
`C[C@H](Cc1ccccc1)Nc1ncnc2c1ncn2[C@@H]1O[C@H](CO)[C@@H](O)[C@H]1O` [(R)-PIA]: the LAD was 3 mg/kg in the experiment filed under Mus musculus [1] and 1 mg/kg in the experiment listed under Mus musculus [2]. For the same compound, in the experiment filed under Rattus norvegicus [5], the ED20 is 0.006 mg/kg.
